Data taken from paper PMC10135050, “Neutralizing Carbapenem Resistance by Co-Administering Meropenem with Novel β-Lactam-Metallo-β-Lactamase Inhibitors” (Antibiotics, 2023).

Tests used:
HepG2 cells = test: LDH membrane leakage assay; format: cell-based, human
Method: HepG2 cells were cultured in 25 mL cell culture flasks using Eagle’s minimum essentials medium (EMEM) supplemented with 10% fetal bovine serum, 1% pen-strep-fungizone and 1% L-glutamine, maintained in a humidified incubator (37 °C, 5% CO2) until approximately 80% confluence.
The LDH assay was used to assess membrane damage of HepG2 cells. Supernatant collected from control and BP2 treated cells were centrifuged (400× g, 24 °C, 10 min) and dispensed (100 μL/well) in triplicate into a 96-well microtiter plate. LDH reagent (100 μL, 11644793001, Sigma Aldrich, Schnelldorf, Germany) was added to each well. The plate was incubated for 30 min at room temperature in the dark. Absorbance was read using a spectrophotometer (Bio-Tek μQuant,) at […]. Results are represented as relative fold change compared to untreated control.

[1] = test system: Escherichia coli TC CARF (VIM-2); test: MIC, broth microdilution and checkerboard assay; format: cell-based; settings: read-out: MIC BP2 Alone
Method: (§1) The Minimum Inhibitory Concentration (MIC) of meropenem BP2 was determined utilizing the broth microdilution assay, as described by the Clinical and Laboratory Standards Institute (CLSI) antimicrobial susceptibility guidelines. The mono-therapeutic effect of each antibiotic and MBLI was evaluated across a panel of MBL-producing Enterobacterales.
(§2) The drug susceptibility profile of meropenem in combination with BP2 was studied using the checkerboard assay. This assay was used to ascertain the effect of two drugs on antimicrobial resistance targeting CRE strains. The assay was performed according to the protocol described previously and was under CLSI antimicrobial susceptibility guidelines. Briefly, twofold dilutions of meropenem with each chelator were made in Cation-adjusted Mueller Hinton Broth (CAMHB) in a 96-well microtiter plate. A 0.5 McFarland-standardized bacterial inoculum was added to each well to obtain a final volume of 100 µL per well. Thereafter, plates were incubated at 37 °C for 18 h under aerobic conditions. The checkerboard assays were performed in triplicate. The MIC was determined as the lowest concentration at which no visible growth was present. The fractional inhibitory concentration index (FICI) was calculated for each combination according to the equation FICI = FICa (MIC of drug A in combination/MIC of drug A alone) + FICb (MIC of drug B in combination/MIC of drug B alone). The FICI was interpreted as follows: synergy, FICI ≤ 0.5; additive 0.5–1; indifference, […] FICI < 4; and antagonism, FICI ≥ 4 [61].

[2] = test system: Klebsiella pneumoniae USA 449 (NDM); test: MIC, broth microdilution and checkerboard assay; format: cell-based; settings: read-out: MIC BP2 Alone
Method: as §1, §2

K. pneumoniae NDM [3] = test: Time-kill study; format: cell-based; settings: meropenem monotherapy
Method: Time-kill studies were performed according to previously published methods, including those described by CLSI document M26-A [62]. Briefly, an overnight culture of K. pneumoniae NDM was diluted to a 0.5 McFarland standard that correlated to approximately […]. The prepared bacterial suspensions were added to 96-well plates containing a fixed dose of 32 mg/L of BP2 and meropenem in concentrations of 0.5, 1 or 2 mg/L. Plates were incubated at 35 °C and 100 rpm shaking. A bacterial control without adding any drugs was included, and a meropenem-only control employing similar conditions. Viability counts were performed at 0, 2, 4, 6, 8, and 24 h by sampling 0.1 mL, diluting as appropriate, and spreading onto Mueller Hinton agar (MHA). These plates were incubated at 35 °C for at least 18 h. Colonies were enumerated as cfu/mL.

K. pneumoniae NDM [4] = test: Murine thigh infection model; format: in vivo, Klebsiella pneumoniae; settings: neutropenic BALB/c mice, 100 mg/kg IP every 2 h
Method: A murine thigh infection model described by Michail et al. was performed with minor modifications. Male Bragg inbred albino c-strain (BALB/c) mice weighing 20–25 g (n = 90) were used in this study. Each of the three groups constituted n = 30 mice, with n = 6 mice receiving treatment every two hours. Prior to infection, mice were IP treated with 150 mg/kg cyclophosphamide on day one and 100 mg/kg on day four of the trial. This was performed to induce neutropenia in the mice. Neutropenia was confirmed by a neutrophil count of <100/mm^3. On day five of the trial, 0.1 mL inoculum containing 10^6–10^8 cfu/mL of K. pneumoniae NDM were IM injected into the right thigh of the mice to initiate infection. Meropenem monotherapy, BP2 + meropenem combination therapy, or normal saline was administered every two hours in an eight-hour treatment period. Mice were euthanized by isoflurane overdose at 2 h, 4 h, 6 h and 8 h post dosing. The right thigh muscle was then aseptically removed and homogenized in 5 mL PBS. Homogenates were spread onto Mueller–Hinton agar and MacConkey agar plates, followed by incubation at 35 °C for 24 h and enumeration of the cfu/mL.

[5] = test system: Escherichia coli ATCC 25922; test: MIC, broth microdilution and checkerboard assay; format: cell-based; settings: ATCC25922, E. coli ATCC 25922, no MBL, alone, read-out: MIC MEM Alone
Method: as §1, §2

Row | SMILES | LDH levels (HepG2 cells; HepG2, 1 µg/mL) | LDH membrane leakage (HepG2 cells; HepG2, 8 µg/mL–200 µg/mL) | Cell membrane integrity (LDH leakage) (HepG2 cells; HepG2, all concentrations tested) | MIC [1] [µg/mL] | MIC [2] [µg/mL] | Increase in bacteria compared to the BP2 + meropenem-treated group (K. pneumoniae NDM [3]) [log10] | Best Log10 Cfu/ml (K. pneumoniae NDM [4]; treatment time 2 h) [Log10 Cfu/ml] | Mean Log10 Cfu/ml (K. pneumoniae NDM [4]; treatment time 2 h) [Log10 Cfu/ml] | Best Log10 Cfu/ml (K. pneumoniae NDM [4]; treatment time 4 h) [Log10 Cfu/ml] | Mean Log10 Cfu/ml (K. pneumoniae NDM [4]; treatment time 4 h) [Log10 Cfu/ml] | Best Log10 Cfu/ml (K. pneumoniae NDM [4]; treatment time 6 h) [Log10 Cfu/ml] | Mean Log10 Cfu/ml (K. pneumoniae NDM [4]; treatment time 6 h) [Log10 Cfu/ml] | Best Log10 Cfu/ml (K. pneumoniae NDM [4]; treatment time 8 h) [Log10 Cfu/ml] | Mean Log10 Cfu/ml (K. pneumoniae NDM [4]; treatment time 8 h) [Log10 Cfu/ml] | MIC [5] [µg/mL]
1 | CON=C(C(=O)NC1C(=O)N2C(C(=O)O)=C(COC(C)=O)CSC12)c1csc(NC(=O)CC(C(=O)OC)N2CCN(CC(=O)O)CCN(CC(=O)O)CC2)n1 (stereo in doubt) [BP2] | remained unaffected | significantly decreased | not disrupted | > 256 | > 256 |  |  |  |  |  |  |  |  |  | 
2 | C[C@@H](O)[C@H]1C(=O)N2C(C(=O)O)=C(S[C@@H]3CN[C@H](C(=O)N(C)C)C3)[C@H](C)[C@H]12 [Meropenem] |  |  |  |  |  | > 2 | 7.2 | 6.8 | 8 | 8.3 | 8.3 | 8.4 | 8.3 | 8.2 | 0.06
